This is an account of results in patent US7314744B2, “Hyperthermostable protease gene” (Takara Bio Inc., priority 1995, dated 2008).

Square brackets hold non-standard residues; d marks the D form. Peptide text beside a SMILES is read from it. * marks the point of attachment. Sta = CC(C)C[C@H](N)[C@@H](O)CC(=O)O; Isovaleryl = CC(C)CC(=O)*

In data set [1] the test system is enzyme preparation TCES (protease TCES). Description: Effects of various reagents on enzyme preparation TCES. In kind it is biochemical, Thermococcus celer. The following applies: for effect of reagent on activity of TCES, in words: 37° C., 30 minutes, 1 mM reagent; for enzyme activity of TCES after treatment with reagent, compared with control (no reagent): treated at 37° C. for 30 minutes, reagent final concentration 1 mM, control 100%. The method, then: (§1) The enzyme activity of the enzyme preparation TC-3 obtained in the present invention can be measured using as a substrate Suc-Leu-Leu-Val-Tyr-MCA (SEQ ID NO:43) (manufactured by Peptide Laboratory). That is, the enzyme preparation to be detected for the enzyme activity is appropriately diluted, to 20 μl of the solution is added 80 μl of a 0.1M sodium phosphate buffer (pH 7.0) containing 62.5 μM Suc-Leu-Leu-Val-Tyr-MCA (SEQ ID NO:43), followed by incubating at 75° C. for 30 minutes. After the reaction is stopped by the addition of 20 μl of 30% acetic acid, the fluorescent intensity is measured at the excitation wavelength of 355 nm and the fluorescence wavelength of 460 nm to quantitate an amount of the generated 7-amino-4-methylcoumarin, and the resulting value is compared with that obtained when incubating without the addition of the enzyme preparation, to investigate the enzyme activity.
(§2) The effects of various reagents on the enzyme preparations TCES and NAPS-1 obtained by the present invention were investigated. That is, the above enzyme preparations were treated at 37° C. for 30 minutes in the presence of the various reagents at the final concentration of 1 mM, and an aliquot thereof was taken to determine the enzyme activity by the method described in the above (2) to compare with that (control) when no reagent was added.

Data set [2] relates to enzyme preparation NAPS-1 (protease PFUS). Description: Effects of various reagents on enzyme preparation NAPS-1. In kind it is biochemical, Pyrococcus furiosus. The following applies: for effect of reagent on activity of NAPS-1, in words: 37° C., 30 minutes, 1 mM reagent; for enzyme activity of NAPS-1 after treatment with reagent, compared with control (no reagent): treated at 37° C. for 30 minutes, reagent final concentration 1 mM, control 100%. The procedure:
(§3) In addition, the enzyme activity of the enzyme preparations NP-1, PT-1, NAPS-1 and NAPS-LS can be photometrically measured using Suc-Ala-Ala-Pro-Phe-p-NA (SEQ ID NO:44) (manufactured by Sigma) as a substrate. That is, an enzyme preparation to be detected for the enzyme activity was appropriately diluted, to 50 μl of the solution was added 50 μl of a 0.1M potassium phosphate buffer (pH 7.0) containing Suc-Ala-Ala-Pro-Phe-p-NA (SEQ ID NO:44) (Suc-Ala-Ala-Pro-Phe-p-NA(SEQ ID NO:44) solution), followed by incubating at 95° C. for 30 minutes. After the reaction was stopped by ice-cooling, the absorbance at 405 nm was measured to quantitate an amount of the generated p-nitroaniline, and the resulting value was compared with that when incubating without the addition of the enzyme preparation, to investigate the enzyme activity. Upon this, a 0.2 mM solution of Suc-Ala-Ala-Pro-Phe-p-NA (SEQ ID NO:44) was used for the enzyme preparations NP-1 and PT-1 and a 1 mM solution was used for the enzyme preparations NAPS-1 and NAPS-1S.
as §2

The next data set relates to Suc-Leu-Leu-Val-Tyr-MCA. The experiment in a line: Suc-Leu-Leu-Val-Tyr-MCA hydrolyzing activity (fluorescence). The format is biochemical. The following applies: pH 7.0 and 75° C., 30 minutes. The method, then: as §1
(§4) The activity of the enzyme preparations obtained in the present invention on the synthetic peptide substrates is confirmed by a method for measuring the enzyme activity described in the above (2). […] In addition, the activity of the enzyme preparations obtained in the present invention on gelatin can be detected by confirming the degradation of gelatin by an enzyme on the SDS-polyacrylamide gel. […]

For the next data set, the system named is Suc-Ala-Ala-Pro-Phe-p-NA. The experiment in a line: Suc-Ala-Ala-Pro-Phe-p-NA hydrolyzing activity (absorbance at 405 nm). In kind it is biochemical. Particulars: pH 7.0 and 95° C., 30 minutes. The method, then: as §3, with “Upon this, a 0.2 mM solution of Suc-Ala-Ala-Pro-Phe-p-NA (SEQ ID NO:44) was used for the enzyme preparations NP-1 and PT-1 and a 1 mM solution was used for the enzyme preparations NAPS-1 and NAPS-1S.” left out
as §4

Another data set relates to gelatin. The experiment in a line: Gelatin degradation on gelatin-containing SDS-polyacrylamide gel. Particulars: gel with 0.05% gelatin, pH 7.0, 95° C., 3 hours. In kind it is biochemical. The source says: The activity of the enzyme preparations obtained in the present invention on the synthetic peptide substrates is confirmed by a method for measuring the enzyme activity described in the above (2). That is, the enzyme preparation TC-3 obtained in the present invention has the Suc-Leu-Leu-Val-Tyr-MCA (SEQ ID NO:43) hydrlyzing activity, and the enzyme preparations NP-1, PT-1, NAPS-1 and NAPS-1A have the Suc-Ala-Ala-Pro-Phe-p-NA (SEQ ID NO:44) hydrlyzing activity, respectively. […] In addition, the activity of the enzyme preparations obtained in the present invention on gelatin can be detected by confirming the degradation of gelatin by an enzyme on the SDS-polyacrylamide gel. That is, the enzyme preparation to be detected for the enzyme activity was appropriately diluted, to 10 μl of the sample solution was added 2.5 μl of a sample buffer (50 mM Tris-HCl, pH 7.5, 5% SDS, 5% 2-mercaptoethanol, 0.005% Bromophenol Blue. 50% glycerol), followed by treatment at 100° C. for 5 minutes and electrophoresis using 0.1% SDS-10% polyacrylamide gel containing 0.05% gelatin. […] The presence of the protease activity was detected by the fact that gelatin is hydrolyzed by a protease into peptides which are diffused out of the gel and, consequently, the relevant portion of the gel was not stained with Coomassie Brilliant Blue.

For a further data set, the system named is casein. Description: Casein degradation on casein-containing SDS-polyacrylamide gel. The following applies: gel with 0.05% casein, 95° C. In kind it is biochemical.
A short description of data set [3]: Thermostability of enzyme preparation (residual activity after heat-treatment). The format is physicochemical. The following applies: 80° C., 20 mM Tris-HCl pH 7.5, 3 hours. The procedure: The thermostability of the enzyme preparation TC-3 obtained by the present invention was investigated. That is, the enzyme preparation was incubated at 80° C. in 20 mM Tris-HCl, pH 7.5 for various periods of time, an appropriate amount thereof was taken to measure the enzyme activity by the method shown in the above (2), and the activity was compared with that when not heat-treated.
In addition, the thermostability of the enzyme preparation NP-1 obtained in the present invention was investigated. That is, the enzyme preparation was incubated at 95° C. in 20 mM Tris-HCl, pH 7.5 for various periods of time, an appropriate aliquot was taken to determine the enzyme activity by the method shown in the above (2), and the enzyme activity was compared with that when not heat-treated. […] This is considered to be because a protease produced as a precursor causes the self-catalytic activation during the heat-treatment.
In addition, the above enzyme preparation NP-1 activated by the heat-treatment was investigated for the thermostability. That is, the enzyme preparation NP-1 was activated by the heat-treatment at 95° C. for 30 minutes, incubated at 95° C. for various periods of time, and the activity was determined as described above to compare with that when not heat-treated. […]

On to `O=S(=O)(F)Cc1ccccc1` [PMSF, phenylmethanesulfonyl fluoride], for which, in data set [1], the “effect of reagent on activity of TCES, in words” value is “remarkably decreased activity” and the “enzyme activity of TCES after treatment with reagent, compared with control (no reagent)” value came out at 8.1%. In data set [2], the “effect of reagent on activity of NAPS-1, in words” value (“effect … of NAPS-1, in words” below) is “remarkably decreased activity” and the “enzyme activity of NAPS-1 after treatment with reagent, compared with control (no reagent)” value is 0.1%.
Regarding `CCN1C(=O)C=CC1=O` [N-ethylmaleimide], in data set [1], the “enzyme activity of TCES after treatment with reagent, compared with control (no reagent)” value is on record as 82.6%. In data set [2], the “enzyme activity of NAPS-1 after treatment with reagent, compared with control (no reagent)” value is recorded as 102.6%.
`O=C(O)CN(CCN(CC(=O)O)CC(=O)O)CC(=O)O` [EDTA]: the “enzyme activity of TCES after treatment with reagent, compared with control (no reagent)” value in data set [1] was 103.5%. In data set [2], the “effect … of NAPS-1, in words” value is recorded as “the decrease in the activity was observed” and the “enzyme activity of NAPS-1 after treatment with reagent, compared with control (no reagent)” value is listed as 36.1%.
In the case of `CC(C)CC(=O)N[C@H](C(=O)N[C@H](C(=O)N[C@@H](CC(C)C)[C@@H](O)CC(=O)N[C@@H](C)C(=O)N[C@@H](CC(C)C)[C@@H](O)CC(=O)O)C(C)C)C(C)C` [Pepstatin] (Isovaleryl-VV[Sta]A[Sta]-OH), the “enzyme activity of TCES after treatment with reagent, compared with control (no reagent)” value in data set [1] amounted to 105.2%. Further, in data set [2], the “enzyme activity of NAPS-1 after treatment with reagent, compared with control (no reagent)” value is recorded as 100.7%.
With `CC(C)C[C@H](NC(=O)[C@@H](NC(=O)N[C@@H](Cc1ccccc1)C(=O)O)[C@@H]1CCN=C(N)N1)C(=O)N[C@H](C=O)Cc1ccccc1` [Chymostatin], in data set [1], the “effect of reagent on activity of TCES, in words” value is listed as “remarkably decreased activity” and the “enzyme activity of TCES after treatment with reagent, compared with control (no reagent)” value is 0%. Also, in data set [2], the “effect … of NAPS-1, in words” value is given as “remarkably decreased activity” and the “enzyme activity of NAPS-1 after treatment with reagent, compared with control (no reagent)” value came out at 6.6%.
In the case of `CC(=O)N[C@@H](CC(C)C)C(=O)N[C@@H](CC(C)C)C(=O)N[C@H](C=O)CCCNC(=N)N` [Leupeptin], in data set [1], the “enzyme activity of TCES after treatment with reagent, compared with control (no reagent)” value is 104.5%. In addition, the “enzyme activity of NAPS-1 after treatment with reagent, compared with control (no reagent)” value in data set [2] was 89.3%.

B1: TC-3: crude enzyme preparation of protease TCES (Thermococcus celer) obtained from Bacillus subtilis DB104/pSTC3 (protein)
chain: MKRLGAVVLALVLVGLLAGTALAAPVKPVVRNNAVQQKNYGLLTPGLFKKVQRMNWNQEVDTVIMFGSYGDRDRAVKVLRLMGAQVKYSYKIIPAVAVKIKARDLLLIAGMIDTGYFGNTRVSGIKFIQEDYKVQVDDATSVSQIGADTVWNSLGYDGSGVVVAIVDTGIDANHPDLKGKVIGWYDAVNGRSTPYDDQGHGTHVAGIVAGTGSVNSQYIGVAPGAKLVGVKVLGADGSGSVSTIIAGVDWVVQNKDKYGIRVINLSLGSSQSSDGTDSLSQAVNNAWDAGIVVCVAAGNSGPNTYTVGSPAAASKVITVGAVDSNDNIASFSSRGPTADGRLKPEVVAPGVDIIAPRASGTSMGTPINDYYTKASGTSMATPHVSGVGALILQAHPSWTPDKVKTALIETADIVAPKEIADIAYGAGRVNVYKAIKYDDYAKLTFTGSVADKGSATHTFDVSGATFVTATLYWDTGSSDIDLYLYDPNGNEVDYSYTAYYGFEKVGYYNPTAGTWTVKVVSYKGAANYQVDVVSDGSLSQSGGGNPNPNPNPNPTPTTDTQTFTGSVNDYWDTSDTFTMNVNSGATKITGDLTFDTSYNDLDLYLYDPNGNLVDRSTSSNSYEHVEYANPAPGTWTFLVYAYSTYGWADYQLKAVVYYG
Regarding B1, the Suc-Leu-Leu-Val-Tyr-MCA hydrolyzing activity entry in the data set with Suc-Leu-Leu-Val-Tyr-MCA was “had the Suc-Leu-Leu-Val-Tyr-MCA (SEQ ID NO:43) hydrolyzing activity”. Also, the Suc-Ala-Ala-Pro-Phe-p-NA hydrolyzing activity entry with Suc-Ala-Ala-Pro-Phe-p-NA is recorded as “the activity to degrade the substrate was recognized”. In the data set on gelatin, the gelatin hydrolyzing activity entry is given as “had the gelatin hydrolyzing activity”. Also, the “casein hydrolyzing activity (gel)” value in the data set with casein was “had the casein hydrolyzing activity”. Also, in data set [3], the “residual activity after heat-treatment” value is reported as “not less than 90%”.
